Test results from patent publication US20230257771A1, “AAV DELIVERY SYSTEM FOR LUNG CANCER TREATMENT” (Christiana Care Health Services, Inc., priority 2020, published 2023).
“Also recorded” adds a separate entry of the source.

Legend:
[1] = tested on: NRF2 knockout A549 (2-11) tumors; test: Xenograft mouse model, NRF2 knockout A549 (2-11) tumors; type: in vivo
Protocol: (§1) The animal trials presented herein were carried out at Washington Biotech Inc., Simpsonville Maryland, under animal use and care protocol (SOP 505, SOP 520, SOP 522, SOP 1610, SOP1650) approved by the animal care and use committee of Washington Biotechnology Inc. (AAALAC accredited Animal Welfare Assurance number A4192-01). The human xenograft model was established using methodology reported previously. Kellar et al., Biomed Res. Int. 2015, 1-17 (2015). Female athymic nude mice (Envigo, 5-6 weeks old) were used in this study. Approximately 5 × 10^6 cells (wild type A549 or homozygous knockout (clonal expansion 2-11)) suspended in PBS with 20% Matrigel were injected subcutaneously into right flank of each mouse. Tumor volume was measured three times a week with a digital caliper once palpable, and calculated using the formula, tumor size = ab^2/2, where ‘a’ is the larger and ‘b’ is the smaller of the two dimensions. When tumors grew up to a mean volume of around 100 mm^3, A549 tumor bearing mice or A549-2-11 tumor bearing mice were randomly divided into 7 groups (N=5 for each group) respectively and subject to dose/regimen-finding study. They were treated with tail vein injection of (1) Cisplatin (2 mg/kg), (2) Carboplatin (25 mg/kg), (3) Cisplatin (5 mg/kg) and Vinorelbine (5 mg/kg) or (4) saline on day 0, 3, 6 and 9 (day 0 is designated as the day of dose started) (Sanjana et al., 2014, Nature Methods 11(8); 783-784). Tumor volume and body weight was closely monitored over time. After 16 days, the animals were sacrificed, with tumor removed, weighed and processed for molecular analysis. Mice were euthanized. The data were expressed as mean ± SD. Student’s t-test and one-way or two-way ANOVA was used to assess the significance of difference. A P value < 0.05 was considered significant.
A549 xenografts were resected on day 16, snap frozen in liquid nitrogen and stored in -80° C. until usage. All immunofluorescence staining was performed as previously described. Wang et al., Investig. Opthalmology Vis. Sci. 58, 3896 (2017). Briefly, tumors were embedded in Optimum Cutting Temperature (Tissue Tek, Torrance, CA, USA) and 16-µm-thick sections were obtained with a Leica CM3050 cryostat (Leica Microsystems, Buffalo Grove, IL, USA), and mounted on slides. Slides were fixed and incubated with blocking buffer for 1 hour at room temperature. Sections were then incubated with primary antibody (refer to Table 3 for more details), then washed in PBS and incubated with Alexa Fluor 488 labeled secondary antibody (1:200 dilution; Invitrogen, Grand Island, NY, USA) for 1 hour at RT. Sections were washed in PBS, then mounted with SlowFade Gold antifade mountant with DAPI (Invitrogen, Carlsbad, CA, USA). […]

[2] = tested on: 2-11 A549 cells (NRF2 knockout); test: MTS cell proliferation assay after drug exposure, NRF2 knockout A549 (2-11); type: cell-based, human; settings: 72 hours; for chemosensitivity (MTS): increasing dosages of single drug
Protocol: (§2) Cell viability was evaluated using the CellTiter 96 Aqueous Non-Radioactive Cell Proliferation Assay (Promega, Madison, WI). A549 cell lines were plated at 2×10^3 cells per well and allowed to culture for 24 hours. The cell media was then aspirated, the cells washed with PBS, then exposed to the MTS reagent for 3 hours. After 3 hours of MTS bio-reduction by proliferating cells, the formazan product’s absorbance was measured using a 450 nm filter on an Infinite 2000 PRO microplate reader (Tecan, Mannadorf, Switzerland). Cell viability after drug exposure was evaluated using the CellTiter 96 Aqueous Non-Radioactive Cell Proliferation Assay. A549 cell lines were plated at 2×10^3 cells per well and allowed to culture for 24 hours. The cells were then treated with cisplatin, carboplatin, or a combination of cisplatin and vinorelbine for three days. The cell media was then aspirated, the cells washed with PBS, then exposed to the MTS reagent for 3 hours. After 3 hours of MTS bio-reduction by proliferating cells, the formazan product’s absorbance was measured using a 450 nm filter on an Infinite 2000 PRO microplate reader.

wild type A549 cells = test: MTS cell proliferation assay after drug exposure, wild type A549; type: cell-based, human; settings: 72 hours
Protocol: as §2

A549 Clone 1-17 cells = test: MTS assay, A549 Neh2 KO Clone 1-17 treated with cisplatin; type: cell-based, human; settings: cisplatin 1, 2, 3, 5, 10 uM, compared to wildtype A549
Text: (§3) The lung adenocarcinoma-derived cell line, A549, was used transfected with CRISPR/Cas9 designed to target exon 2 of NRF2 to create individual clones with random indel patterns. A total of three clones, 1-17, 2-16, and 2-23, were isolated and expanded. All three clones were collected for genomic DNA isolation and sanger sequencing to confirm the indels present. The DECODR program was used to deconvolute the sanger sequencing of each clone. The A549 cell line is polyploid and therefore, these clones contain 3 alleles of the NRF2 gene. Clone 1-17 contains -2, -2, -13 base pair deletions. Clone 2-16 contains a -1 base pair deletion across all alleles. Clone 2-23 contains two wildtype alleles and a -2 base pair deletion. A cell proliferation assay was used to assess the functionality of NRF2 after CRISPR targeting in combination with cisplatin treatment. The MTS assay was used to measure cellular proliferation of A549 wildtype, Clone 1-17, 2-16, and 2-23 cells. Cells were plated at the same concentration in each well and allowed to recover for 24 hours. […] Absorbance values for each clone and concentration were normalized by dividing the absorbance by the absorbance of each control well (0 µM). Normalized values for each clone at each concentration were then averaged across and standard error of the mean was calculated. […]

A549 Clone 2-16 cells = test: MTS assay, A549 Neh2 KO Clone 2-16 treated with cisplatin; type: cell-based, human; settings: cisplatin 1, 2, 3, 5, 10 uM, compared to wildtype A549
Text: as §3

wild type A549 tumors = test: Xenograft mouse model, wild type A549 tumors; type: in vivo
Protocol: as §1, with “They were treated with tail vein injection of (1) Cisplatin (2 mg/kg), (2) Carboplatin (25 mg/kg), (3) Cisplatin (5 mg/kg) and Vinorelbine (5 mg/kg) or (4) saline on day 0, 3, 6 and 9 (day 0 is designated as the day of dose started) (Sanjana et al., 2014, Nature Methods 11(8); 783-784).” left out, “After 16 days, the animals were sacrificed, with tumor removed, weighed and processed for molecular analysis. Mice were euthanized.” left out, “Student’s t-test and one-way or two-way ANOVA was used to assess the significance of difference. A P value < 0.05 was considered significant.” left out

A549 Clone 2-23 cells = test: MTS assay, A549 Neh2 KO Clone 2-23 treated with cisplatin; type: cell-based, human; settings: cisplatin 1, 2, 3, 5, 10 uM, compared to wildtype A549
Text: as §3

[3] = increasing cisplatin with Vinorelbine at 5 µM
[4] = increasing dosages of cisplatin
[5] = 5 mg/kg cisplatin and 5 mg/kg vinorelbine in combination
[6] = cisplatin 2 mg/kg, tumors harvested day 16

SMILES | tumor growth over 16 days ([1]; 25 mg/kg carboplatin tail vein) | chemosensitivity (MTS) ([2]; listed as Carboplatin) | cisplatin dosage above which elevated sensitivity is shown (wild type A549 cells; [3]) [µM] | dose dependence of cell proliferation (MTS) (wild type A549 cells; [4]) | resistance to drug (MTS proliferation) (wild type A549 cells; [4]) | sensitivity to cisplatin (MTS) (A549 Clone 1-17 cells) | sensitivity to cisplatin (MTS) (A549 Clone 2-16 cells) | tumor growth over 16 days (wild type A549 tumors; [5]) | size of extracted tumors (wild type A549 tumors; [6]) | sensitivity to cisplatin (MTS) (A549 Clone 2-23 cells) | tumor growth over 16 days [1, 5] | tumor growth over 16 days ([1]; cisplatin 2 mg/kg tail vein, day 0, 3, 6, 9) | size of extracted tumors [1, 6] | concentrations with loss of proliferation ([2]; cisplatin) [µM] | chemosensitivity (MTS), combination [2, 3] | chemosensitivity (MTS) [2]
N.N.O=C([O-])C1(C(=O)[O-])CCC1.[Pt+2] [carboplatin] | reduction in tumor proliferation | the cell killing response reflected what was observed in the experiments using cisplatin |  |  |  |  |  |  |  |  |  |  |  |  |  | 
N.N.[Cl][Pt][Cl] [cisplatin] |  |  | > 5 | slight increase in cell proliferation up to 3 µM of cisplatin before proliferation is adversely affected at final concentrations of 5 µM and 10 µM | resistant to high dosages | relatively the same trend of sensitivity | relatively the same trend of sensitivity | more sensitive to this combination of drugs | proliferate aggressively | even higher resistance than the wildtype cells | cessation of tumor growth and maintenance of tumor size; also recorded: reduction in tumor proliferation | proliferation of the implanted cells is arrested; also recorded: reduction in tumor proliferation | smallest tumors | ≥ 1 | increased sensitivity; also recorded: a heightened sensitivity is also observed | heightened sensitivity
